Laboratory results: patent publication US20130324606A1, “Ester Derivatives of Bimatoprost Compositions and Methods” (ALLERGAN, INC., priority 2011, published 2013)

How the values were obtained:
C57Black/6J mice = experiment: Piliation (hair regrowth) studies in mice; type: in vivo; settings: mouse hair regrowth
Method: C57Black/6J, 7-week old female mice (n=10) were employed in piliation studies. Dorsal hair was shaved (area ˜2 cm×4 cm). Dosing of active agent was once per day (QD) by topical administration for 14 days. Observations were conducted for 42-days to determine onset of new hair growth and day of hair growth completion. Compounds were formulated as either a) 50% propylene glycol, 30% ethanol, 20% water, or b) the formulation of Formulation A described above. The experiments reported for FIGS. 4A-4B, 5A-5B, 6A-6B, 8A-8B, and 9A-9B were conducted using a vehicle with formulation of 50% propylene glycol, 30% ethanol, 20% water. The experiments reported for FIGS. 7A-7B were conducted using a vehicle of Formulation A described above.
For each of FIGS. 4A, 5A, 6A, 7A, 8A and 9A, the histograms depict the day of onset of hair growth. For each of FIGS. 4B, 5B, 6B, 7B, 8B and 9B, the histograms depict the day achieving full hair growth.

mouse skin = experiment: Pathology assessment of mouse hair regrowth model; type: in vivo, mice; settings: histology, 0.03% active, vehicle control still in growth phase
Excerpt: Histological samples from test subjects employed in the studies described in Example 12 were obtained for pathology assessment.

[1] = Compound distribution in mouse skin by MALDI-MS imaging; type: in vivo
Method: In order to determine the penetration, accumulation and/or differential distribution of bimatoprost and compounds disclosed herein upon dermal administration, MALDI-MS (matrix assisted laser desorption ionization mass spectroscopy) imaging was conducted on explanted samples of mouse skin after topical dermal administration.
MALDI-MS imaging was conducted on mouse skin strips after administration of bimatoprost or compound disclosed herein once daily for 3 days. Samples of mouse skin were recovered 4 hr after day-3 dosing of compound. Dermal administration was conducted with vehicle, 0.03% bimatoprost, 3% bimatoprost, 0.03% Cmpd IVa, and 3% Cmpd IVa.
FIG. 16A depicts a typical explanted sample of mouse skin for these studies, wherein Cmpd IVa was applied via dermal administration. FIG. 16B depicts the result of MALDI-MS imaging. The intensity of each pixel within FIG. 16B reflects the concentration of Cmpd IVa at the corresponding point in the image depicted in FIG. 16A. FIG. 16C depicts a representative mass spectrum, corresponding to the region of FIG. 16B indicated by the white circle within FIG. 16B. Accordingly, each pixel of the image of FIG. 16B has an associated mass spectrum, providing the amounts of bimatoprost or other administered compound or metabolite thereof.

[2] = In vitro human skin penetration (Franz diffusion chamber); type: in vitro ADME; settings: FIGS. 14A-14C, 6, 24, 48 hr

Structure (SMILES): CCNC(=O)CCC/C=C\C[C@@H]1[C@@H](/C=C/[C@H](CCc2ccccc2)OC(C)=O)[C@H](O)C[C@@H]1O [Cmpd IVa, 15-acetyl-bimatoprost]
- effectiveness of 0.03% compound compared to 0.1% to 0.3% bimatoprost (C57Black/6J mice): approximately equally effective
- pharmacological efficacy relative to bimatoprost (C57Black/6J mice; vehicle 50% propylene glycol, 30% ethanol, 20% water): efficacy greater than bimatoprost
- pharmacological efficacy relative to bimatoprost (C57Black/6J mice; vehicle Formulation A): efficacy greater than bimatoprost
- hair cycle phase at day-42 (mouse skin): returned to the resting phase
- detectability in mouse skin by MALDI-MS imaging ([1]; after topical dermal administration at 0.03%): detectable
- skin penetration of 3.0% compound compared with 3.0% bimatoprost ([1]; topical dermal administration, MALDI-MS): similar
- conversion to bimatoprost in the receptor chamber solution [2]: observed to convert to bimatoprost
